Tested on: 521955-158-R2-J5-PDC complex spheroids, viability
Assay: Anticancer human tumor 521955-158-R2-J5-PDC patient-derived pancreatic carcinoma cell line growth inhibition [RAS]
Conditions: for IC50: curve of first compound; for viability, T/C: stronger effect = lower value
Text: RAS pathway inhibitors in Combinations in Complex Spheroids
A high-throughput screen of multi-cell type tumor spheroids was designed to identify active combinations of RAS pathway inhibitors and targeted small molecules. Complex spheroids include a stromal component modeled by human endothelial cells (HUVEC) and fibroblasts modeled by human mesenchymal stem cells (MSCs). The concentration ranges selected for each drug and investigational agent were based upon clinically achievable concentrations if the clinical Cmax of the agent was known.
Compounds. The drugs and investigational agents: abemaciclib (NSC768073), cobimetinib (NSC768068), divarasib (GDC6063, NSC841802), docetaxel (NSC628503), GDC-1971 (RLY-1971, NSC841576), gemcitabine (NSC613327), inavolisib (NSC800729), ipatasertib (NSC767898), KB-0742 (NSC834161), MRTX-1133 (NSC836407), osimertinib (NSC779217), RMC-4630 (NSC839698), RMC-6236 (NSC851965), RMC-6291 (NSC852671), Ro-3306 (NSC812927), sapanisertib (NSC764658), SN-38 (NSC673596), staurosporine (NSC755774), SY5609 (NSC837396), and tovorafenib (DAY101, NSC766906), were obtained from the National Cancer Institute (NCI) Developmental Therapeutics Program Chemical Repository. The FDA-approved anticancer drug set is available from the NCI Developmental Therapeutics Program. […] The stock solutions were prepared in dimethyl sulfoxide (DMSO, Sigma-Aldrich, St. Louis, MO, cat. D2650) at 800-fold the tested concentration and stored at -70 degrees C prior to their use. All drugs and investigational agents were tested over a range starting from a high concentration at or near the clinical Cmax and decreasing in half-log increments. If the clinical Cmax for an agent had not been determined, the highest concentration tested was 10 microM.
Cell Culture. All cells were maintained in an incubator at 37 degrees C and 5% CO2 with 95% humidity. The PDC lines were cultured according to standard operating procedures established by the NCI PDMR. All PDCs were thawed and cultured in Matrigel-coated flasks prepared with a working solution of 1X Ham's F-12 nutrient mix, without supplementation (Invitrogen, Waltham, MA, cat. 11765054), 100 U/mL penicillin-streptomycin (Invitrogen, cat. 15140122), and 2.5% Matrigel (Corning Inc., Corning, NY, cat. 354248) for the first three passages. The 362531-283-R-J2-PDC and 782815-120-R-J1-PDC lines were cultured in 6C/Colon 1B media, which includes advanced DMEM/F-12 (Thermo Fisher Scientific, cat. 12634028), 10 mM HEPES (Thermo Fisher Scientific, cat. 15630080), 1X GlutaMAX supplement (Thermo Fisher Scientific, cat. 35050061), 0.1 mg/mL primocin (InvivoGen, San Diego, CA, cat. ant-pm-2), 10% defined fetal bovine serum, heat inactivated (HyClone Laboratories Inc., Logan, UT, cat. SH30070.03HI), 50% L-WRN conditioned media (ATCC, cat. CRL-3276), 1.25 mM N-Acetyl-L-cysteine (Sigma-Aldrich, cat. A9165), 10 mM nicotinamide (Sigma-Aldrich, cat. N0636), 1X B-27 supplement (Thermo Fisher Scientific, cat. 17504044), 1X N-2 supplement (Thermo Fisher Scientific, cat. 17502048), 50 ng/mL human EGF (Thermo Fisher Scientific, cat. PHG0311), and 10 microM Y-27632 dihydrochloride (Tocris Bioscience, cat. 1254). The K12877-001-R-J1-PDC line was cultured in 6I media, which includes all 6C/Colon 1B media plus 10 ng/mL human FGF-10 (PeproTech, cat. 100-26), 1 ng/mL human FGF-2 (PeproTech, cat. 100-18B), 1 µM prostaglandin E2 (Tocris Bioscience, cat. 2296), […] hydrocortisone (Sigma-Aldrich, cat. H4001), and […] bovine insulin (Sigma-Aldrich, cat. I6634). The K86415-001-R-J1-PDC line was cultured in 6D media, which includes all 6C/Colon 1B media components minus the L-WRN conditioned media. The 485176-168-R4-J1-PDC was cultured in PANC media, which includes all 6C/Colon 1B media plus 100 ng/mL human FGF-10 (PeproTech, cat. 100-26), 500 nM SB-431542 (Selleckchem, cat. S1067), and 10 nM gastrin (Tocris Bioscience, cat. 3006). […]
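Further: compound exposure lasted seven days before the viability read.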
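Wherever viability, T/C is given: spheroids also contain HUVEC endothelial cells and mesenchymal stem cells as stroma.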

Work on C[C@@H](NC(=O)c1ncnc(N)c1Cl)c1ncc(C(=O)Nc2cc(C(F)(F)F)c(Cl)cn2)s1 + CCn1c(-c2cccnc2C(C)OC)c2c3cc(ccc31)N1CCOC(CC(NC(=O)C(C(C)C)N(C)C(=O)C3(F)CCN(C(=O)C#CC(C)(C)N(C)C)CC3)C(=O)N3CCCC(N3)C(=O)OCC(C)(C)C2)C1 yielded an IC50 (second compound 0.000949 µM) of 5.93 µM, an IC50 (second compound 0.003 µM) greater than 10 µM and an IC50 (second compound 0.00949 µM) greater than 10 µM. For the same molecule, the IC50 (second compound 0.03 µM) was 10 µM, the IC50 (second compound 0.0949 µM) was greater than 10 µM and the IC50 (second compound 0.3 µM) was 1.51 µM. For the same molecule, the viability, T/C (second compound 0.000949 µM, first compound 0.0316 µM) was 137%, the viability, T/C (second compound 0.000949 µM, first compound 0.1 µM) was 100% and the viability, T/C (second compound 0.000949 µM, first compound 0.316 µM) was 84.3%. The viability, T/C (second compound 0.000949 µM, first compound 1 µM) was 70.1%, the viability, T/C (second compound 0.000949 µM, first compound 3.16 µM) was 55.1% and the viability, T/C (second compound 0.000949 µM, first compound 10 µM) was 53.1%. The viability, T/C (second compound 0.003 µM, first compound 0.0316 µM) was 111%, the viability, T/C (second compound 0.003 µM, first compound 0.1 µM) was 121% and the viability, T/C (second compound 0.003 µM, first compound 0.316 µM) was 85.6%. For the same molecule, the viability, T/C (second compound 0.003 µM, first compound 1 µM) was 73.2%, the viability, T/C (second compound 0.003 µM, first compound 3.16 µM) was 64.2% and the viability, T/C (second compound 0.003 µM, first compound 10 µM) was 56.1%. The viability, T/C (second compound 0.00949 µM, first compound 0.0316 µM) was 118%, the viability, T/C (second compound 0.00949 µM, first compound 0.1 µM) was 94.8% and the viability, T/C (second compound 0.00949 µM, first compound 0.316 µM) was 89%. For the same molecule, the viability, T/C (second compound 0.00949 µM, first compound 1 µM) was 60.1%, the viability, T/C (second compound 0.00949 µM, first compound 3.16 µM) was 70.7% and the viability, T/C (second compound 0.00949 µM, first compound 10 µM) was 63.6%. It also gave a viability, T/C (second compound 0.03 µM, first compound 0.0316 µM) of 91.1%, a viability, T/C (second compound 0.03 µM, first compound 0.1 µM) of 126% and a viability, T/C (second compound 0.03 µM, first compound 0.316 µM) of 69.1%. It also gave a viability, T/C (second compound 0.03 µM, first compound 1 µM) of 59.6%, a viability, T/C (second compound 0.03 µM, first compound 3.16 µM) of 68.6% and a viability, T/C (second compound 0.03 µM, first compound 10 µM) of 48%. For the same molecule, the viability, T/C (second compound 0.0949 µM, first compound 0.0316 µM) was 122%, the viability, T/C (second compound 0.0949 µM, first compound 0.1 µM) was 99% and the viability, T/C (second compound 0.0949 µM, first compound 0.316 µM) was 79.6%. For the same molecule, the viability, T/C (second compound 0.0949 µM, first compound 1 µM) was 56.7%, the viability, T/C (second compound 0.0949 µM, first compound 3.16 µM) was 60.4% and the viability, T/C (second compound 0.0949 µM, first compound 10 µM) was 58.8%. It also gave a viability, T/C (second compound 0.3 µM, first compound 0.0316 µM) of 131%, a viability, T/C (second compound 0.3 µM, first compound 0.1 µM) of 98% and a viability, T/C (second compound 0.3 µM, first compound 0.316 µM) of 71.6%. The viability, T/C (second compound 0.3 µM, first compound 1 µM) was 46.8%, the viability, T/C (second compound 0.3 µM, first compound 3.16 µM) was 48.1% and the viability, T/C (second compound 0.3 µM, first compound 10 µM) was 46.1%.
